Measured values as given in article PMC9781217, “Discovery of Novel and Selective G-Protein Coupled Receptor 120 (GPR120) Agonists for the Treatment of Type 2 Diabetes Mellitus” (Molecules, 2022).
Where two headings read alike, the source gives them in different places.

What was measured:
human GPR120 (hGPR120) = molecular target: T1, human GPR120 (hGPR120) (Homo sapiens, UniProt Q5NUL3); assay: Calcium flux assay in hGPR120-transfected CHO cells; conditions: for Selectivity: hGPR120 over hGPR40
T1 sequence (Q5NUL3 1-361): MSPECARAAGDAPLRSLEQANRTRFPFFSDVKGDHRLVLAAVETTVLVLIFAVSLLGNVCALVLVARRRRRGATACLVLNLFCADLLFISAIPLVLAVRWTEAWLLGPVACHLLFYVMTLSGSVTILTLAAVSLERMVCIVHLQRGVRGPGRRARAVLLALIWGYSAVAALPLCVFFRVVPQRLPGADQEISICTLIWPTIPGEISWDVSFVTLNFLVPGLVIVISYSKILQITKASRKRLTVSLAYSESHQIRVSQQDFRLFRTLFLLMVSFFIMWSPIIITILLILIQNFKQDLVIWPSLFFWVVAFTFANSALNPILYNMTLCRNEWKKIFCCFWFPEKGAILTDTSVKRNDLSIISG
Protocol: (§1) A calcium flux assay was performed to assess the agonist activity of the test compounds against the hGPR120 (mGPR120) and hGPR40 (mGPR40) receptors. […] The medium in the wells was gently discarded, and the wells were washed with Hank’s balanced salt solution (HBSS; 100 μL per well). […] The cells were then washed thrice in HBSS and allowed to equilibrate for 10 min before conducting the assay. Test compounds dissolved in dimethyl sulfoxide were diluted in HBSS at various concentrations and added to Fluo-4 AM-containing cells, and intracellular Ca^2+ concentrations were measured using FlexStation3 Molecular Devices. The EC50 value of each compound was calculated using GraphPad Prism software (version 5.0; GraphPad Software, San Diego, CA, USA).

human GPR40 (hGPR40) = human GPR40 (hGPR40) (Homo sapiens, UniProt O14842); assay: Calcium flux assay in hGPR40-expressing CHO cells
Chain of human GPR40 (hGPR40) (O14842 whole entry): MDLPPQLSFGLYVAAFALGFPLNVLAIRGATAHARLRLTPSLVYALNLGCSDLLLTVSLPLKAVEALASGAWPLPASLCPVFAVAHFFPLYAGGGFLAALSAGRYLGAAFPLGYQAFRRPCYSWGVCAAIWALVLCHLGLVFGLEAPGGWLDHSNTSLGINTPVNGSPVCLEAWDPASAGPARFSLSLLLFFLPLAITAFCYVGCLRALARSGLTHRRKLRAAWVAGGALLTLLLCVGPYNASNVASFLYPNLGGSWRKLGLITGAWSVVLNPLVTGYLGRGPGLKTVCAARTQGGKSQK
Protocol: as §1

[1] = read-out: hGPR120 (EC50), calcium flux, hGPR120 CHO cells, mean of three determinations
[2] = read-out: hGPR40 (EC50), calcium flux, hGPR40 CHO cells, mean of three determinations

Compound	EC50 (human GPR120 (hGPR120)) [nM]	EC50 (human GPR40 (hGPR40)) [nM]	melting point [°C]	Selectivity (human GPR120 (hGPR120))	EC50 (human GPR120 (hGPR120); [1]) [nM]	EC50 (human GPR40 (hGPR40); [2]) [nM]
Cc1cccc(-c2ccc(F)cc2OCc2ccc(OCCCC(=O)O)c(F)c2)c1 [Compound 14b, 4-(2-fluoro-4-(((4-fluoro-3′-methyl-[1,1′-biphenyl]-2-yl)oxy)methyl)phenoxy)butanoic acid]	82.5	93200				
Cc1ccc(-c2ccc(F)cc2OCc2ccc(OCCC(=O)O)c(C)c2)cc1 [Compound 10f, 3-(4-(((4-fluoro-4′-methyl-[1,1′-biphenyl]-2-yl)oxy)methyl)-2-methylphenoxy)propanoic acid]	268		125 to 127			
Cc1ccc(-c2ccc(F)cc2OCc2ccc(OCC(=O)O)c(F)c2)cc1 [Compound 10i, 2-(2-fluoro-4-(((4-fluoro-4′-methyl-[1,1′-biphenyl]-2-yl)oxy)methyl)phenoxy)acetic acid]	77.2	87200	90 to 92	1129.5		
Cc1ccc(-c2ccc(F)cc2OCc2ccc(OCCC(=O)O)cc2)cc1 [Compound 10b, 3-(4-(((4-fluoro-4′-methyl-[1,1′-biphenyl]-2-yl)oxy)methyl)phenoxy)propanoic acid]	218		120 to 122			
4-(2-fluoro-4-(((4-fluoro-3′,5′-dimethyl-[1,1′-biphenyl]-2-yl)oxy)methyl)phenoxy)butanoic acid [Compound 14h]					422	
Cc1ccc(-c2ccc(F)cc2OCc2ccc(OCCCCC(=O)O)cc2)cc1 [Compound 10d, 5-(4-(((4-fluoro-4′-methyl-[1,1′-biphenyl]-2-yl)oxy)methyl)phenoxy)pentanoic acid]	103	144000	124 to 126	1391.5		
Cc1ccc(-c2ccc(F)cc2OCc2ccc(OCCCCC(=O)O)c(C)c2)cc1 [Compound 10h, 5-(4-(((4-fluoro-4′-methyl-[1,1′-biphenyl]-2-yl)oxy)methyl)-2-methylphenoxy)pentanoic acid]	206					
4-(4-(((2′,4-difluoro-4′-methoxy-[1,1′-biphenyl]-2-yl)oxy)methyl)-2-fluorophenoxy)butanoic acid [Compound 14l]				665.2	136	90800
Cc1ccc(-c2ccc(F)cc2OCc2ccc(OCCCC(=O)O)c(F)c2)c(F)c1 [Compound 14n, 4-(4-(((2′,4-difluoro-4′-methyl-[1,1′-biphenyl]-2-yl)oxy)methyl)-2-fluorophenoxy)butanoic acid]	313		92 to 94			
Cc1ccc(-c2ccc(F)cc2OCc2ccc(OCCCC(=O)O)c(F)c2)c(Cl)c1 [Compound 14m, 4-(4-(((2′-chloro-4-fluoro-4′-methyl-[1,1′-biphenyl]-2-yl)oxy)methyl)-2-fluorophenoxy)butanoic acid]	187	78600	105 to 107	419.6		
Cc1ccc(-c2ccc(F)cc2OCc2ccc(OCCCC(=O)O)c(F)c2)c(C)c1 [Compound 14i]	159	95100		600.0		
O=C(O)CCCOc1ccc(COc2cc(F)ccc2-c2ccccc2F)cc1F [Compound 14c, 4-(4-(((2′,4-difluoro-[1,1′-biphenyl]-2-yl)oxy)methyl)-2-fluorophenoxy)butanoic acid]	168		94 to 96			
Cc1ccc(-c2ccc(F)cc2OCc2ccc(OCC(=O)O)c(C)c2)cc1 [Compound 10e, 2-(4-(((4-fluoro-4′-methyl-[1,1′-biphenyl]-2-yl)oxy)methyl)-2-methylphenoxy)acetic acid]	138	141000	128 to 130	1019.5		
4-(2-fluoro-4-(((4-fluoro-2′,4′-dimethyl-[1,1′-biphenyl]-2-yl)oxy)methyl)phenoxy)butanoic acid [Compound 14f]				604.0	170	103000
Cc1ccc(-c2ccc(F)cc2OCc2ccc(OCCC(=O)O)c(F)c2)cc1 [Compound 10j, 3-(2-fluoro-4-(((4-fluoro-4′-methyl-[1,1′-biphenyl]-2-yl)oxy)methyl)phenoxy)propanoic acid]	112	85500				
Cc1ccc(-c2ccc(F)cc2OCc2ccc(OCCCC(=O)O)c(C)c2)cc1 [Compound 10g, 4-(4-(((4-fluoro-4′-methyl-[1,1′-biphenyl]-2-yl)oxy)methyl)-2-methylphenoxy)butanoic acid]	380					
Cc1ccc(-c2ccc(F)cc2OCc2ccc(OCC(=O)O)cc2)cc1 [Compound 10a, 2-(4-(((4-fluoro-4′-methyl-[1,1′-biphenyl]-2-yl)oxy)methyl)phenoxy)acetic acid]	92.4	76200	164 to 166	824.7		
Cc1ccc(-c2ccc(F)cc2OCc2ccc(OCCCC(=O)O)cc2)cc1 [Compound 10c, 4-(4-(((4-fluoro-4′-methyl-[1,1′-biphenyl]-2-yl)oxy)methyl)phenoxy)butanoic acid]	129	113000	106 to 108	875.6		
Cc1ccc(-c2ccc(F)cc2OCc2ccc(OCCCCC(=O)O)c(F)c2)cc1 [Compound 10l, 5-(2-fluoro-4-(((4-fluoro-4′-methyl-[1,1′-biphenyl]-2-yl)oxy)methyl)phenoxy)pentanoic acid]	96.8	94700				
COc1ccc(-c2ccc(F)cc2OCc2ccc(OCCCC(=O)O)c(F)c2)cc1 [Compound 14e, 4-(2-fluoro-4-(((4-fluoro-4′-methoxy-[1,1′-biphenyl]-2-yl)oxy)methyl)phenoxy)butanoic acid]	260		103 to 105			
Cc1ccccc1-c1ccc(F)cc1OCc1ccc(OCCCC(=O)O)c(F)c1 [Compound 14a, 4-(2-fluoro-4-(((4-fluoro-2′-methyl-[1,1′-biphenyl]-2-yl)oxy)methyl)phenoxy)butanoic acid]	90.4	68500	83 to 85	757.7		
